Data reported in the OPERA property sets (Mansouri et al. 2018).

Conditions: not given

SMILES | boiling point [°C] | melting point [°C] | log10 vapour pressure (mmHg) | log10 Koc (L/kg) | log10 Henry constant (atm·m³/mol) | ready biodegradability | log10 biodegradation half-life (days)
CC=CC(C)=O | 122 | – | – | – | – | – | –
CO[C@H]1[C@H](O)[C@H](O[C@H]2CC[C@@]3(C)[C@H](CC[C@@H]4[C@@H]3CC[C@]3(C)[C@@H](C5=CC(=O)OC5)CC[C@]43O)C2)O[C@@H](C)[C@@H]1O | – | 221 | – | – | – | – | –
Cc1ccc(C(=O)NS(=O)(=O)c2ccc(N)cc2)cc1C | – | 222 | – | – | – | – | –
CCCCCC1CCCC1 | 180 | -83 | – | – | – | – | –
Clc1cccc2c1Oc1c(Cl)c(Cl)c(Cl)c(Cl)c1O2 | – | 220 | -9.25 | – | – | – | –
C[C@H](O)CC[C@H](C)O | 218 | 43 | – | – | – | – | –
O=C(O)c1ccc([N+](=O)[O-])c([N+](=O)[O-])c1 | – | 166 | – | 1.53 | – | – | –
CCCC(O)/C=C/C=C/C=C/C#CC#CCCCO (stereo not drawn) | – | 54 | – | – | – | – | –
NC(=O)C(CCN1CCCCCC1)(c1ccccc1)c1ccccc1 | – | 142 | – | – | – | – | –
OCCN1CCN(CCO)CC1 | – | 135 | – | – | – | – | –
CC1CCCNC1=O (stereo not drawn) | 250 | 55.3 | – | – | – | – | –
CCCCCCC(C)O (stereo not drawn) | – | – | -0.616 | – | -3.91 | readily biodegradable | –
O=[N+]([O-])c1ccc(N=C=S)cc1 | – | 111 | – | – | – | – | –
CCC(Cc1ccccc1)c1ccccc1 (stereo not drawn) | 290 | – | – | – | – | – | –
Nc1ccc(S(=O)(=O)Nc2cnc3ccccc3n2)cc1 | – | 248 | – | – | – | – | –
c1ccc(C2CCc3ccccc3O2)cc1 (stereo not drawn) | 332 | 46.3 | – | – | – | – | –
N#CCCN | 185 | – | -0.0655 | – | – | – | –
COc1cccc(OC)c1C(=O)O | – | – | -6.72 | – | – | – | –
CC(=O)O[C@]1(C(C)=O)CC[C@H]2[C@@H]3C=C(C)C4=CC(=O)CC[C@]4(C)[C@H]3CC[C@@]21C | – | 214 | – | – | – | – | –
CCCCNCC(=O)Nc1c(C)cccc1Cl | – | 45.5 | – | – | – | – | –
Fc1cccc(C(F)(F)F)c1 | 102 | -81.5 | – | – | – | – | –
Cc1cccc(Cl)c1N | 215 | 2 | – | – | – | – | –
COP(=S)(OC)Oc1ccc(C#N)cc1 | – | 14.5 | -3.1 | – | – | not readily biodegradable | –
CCCCCCCCCCCc1ccccc1 | 316 | -5 | -3.62 | – | – | – | –
CCOC(=O)Cc1c[nH]c2ccccc12 | – | 44.5 | – | – | – | – | –

SMILES | boiling point [°C] | melting point [°C] | log10 vapour pressure (mmHg) | log10 Koc (L/kg) | log10 Henry constant (atm·m³/mol) | ready biodegradability | log10 biodegradation half-life (days)
CCCCCCCCCc1cccc(O)c1CCCCCCCCC | – | – | – | – | – | not readily biodegradable | –
CCCCC(C)(C)CO | 172 | – | – | – | – | – | –
CCCN(CCC)C(C)=O | 210 | – | – | – | – | – | –
OC1CC=CCC1 (stereo not drawn) | 164 | – | – | – | – | – | –
O/N=C\c1cc[n+](COC[n+]2ccc(/C=N\O)cc2)cc1.[Cl-].[Cl-] | – | 220 | – | – | – | – | –
CCNc1ccc(C)cc1 | 217 | – | – | – | – | not readily biodegradable | –
C[N+](C)(C)c1ccccc1.[I-] | – | 224 | – | – | – | – | –
CC(C)C(O)CO (stereo not drawn) | 206 | – | – | – | – | – | –
C=CCOCCO | 158 | – | – | – | – | – | –
CCOc1ccc(OCC)cc1 | 246 | 72 | – | – | – | – | –
CNCC(OC)OC | 140 | – | – | – | – | – | –
CCCCCCOC(=O)c1ccccc1C(=O)OCCCCCC | – | -58 | -4.85 | 4.72 | – | – | –
O=C(NO)c1ccccc1 | – | 128 | – | – | – | – | –
CO[C@@H]1C=C[C@@]23c4cc5c(cc4CO[C@]2(O)CN(C)[C@H]3C1)OCO5 | – | 210 | – | – | – | – | –
C[Si](C)(C)CC(=O)O | – | 41 | – | – | – | – | –
O=C1CCCC(=O)N1 | – | 156 | – | – | – | – | –
CCCc1ccc(C)cc1 | 183 | -63.6 | 0.043 | – | – | – | –
O=C(OCCO)c1ccccc1 | – | 45 | – | – | – | – | –
NC(c1ccccc1)c1ccccc1 | 304 | 34 | – | – | – | – | –
Nc1ccc(Cl)c(Cl)c1 | 272 | 72 | -2.2 | 2.29 | – | not readily biodegradable | –
C=C(C)C1CCC=C(C)C1 (stereo not drawn) | 176 | – | – | – | – | – | –
FC(F)(F)C(F)(F)C(Cl)Cl | 51.1 | -94 | 2.38 | – | -0.299 | – | –
CCCCOCCOCCCC | 203 | -69.1 | -1.05 | – | – | – | –
O=C(O)C(=O)c1ccccc1 | – | 66 | – | – | – | – | –
O=C(OCC(COC(=O)c1cccnc1)(COC(=O)c1cccnc1)COC(=O)c1cccnc1)c1cccnc1 | – | 162 | – | – | – | – | –

SMILES | boiling point [°C] | melting point [°C] | log10 vapour pressure (mmHg) | log10 Koc (L/kg) | log10 Henry constant (atm·m³/mol) | ready biodegradability | log10 biodegradation half-life (days)
CC(C)(C#N)O[C@@H]1O[C@H](CO)[C@@H](O)[C@H](O)[C@H]1O | – | 145 | – | – | – | – | –
O=c1cn[nH]c(=O)[nH]1 | – | 274 | – | – | – | – | –
Ic1cccs1 | 181 | -40 | 0.906 | – | – | – | –
CC1(C)CCCCC1O (stereo not drawn) | 177 | 8 | – | – | – | – | –
Cc1ccc2nc(-c3ccc(N)cc3)sc2c1 | 434 | 195 | – | – | – | – | –
O=C1OC(c2ccccc2)(c2ccccc2)c2ccccc21 | – | 120 | – | – | – | – | –
CC(=O)O[C@@H]1C[C@H](C)CC[C@H]1C(C)C (racemic) | 228 | – | -0.983 | – | – | – | –
NCCCCCCO | – | 57 | -2.62 | – | – | – | –
FC(F)(F)C(F)(F)Br | -21 | – | – | – | – | – | –
O=C(Cl)C(F)(F)C(F)(F)C(F)(F)F | 38.5 | – | – | – | – | – | –
CCC1CCCCC1 | 132 | -111 | 1.11 | – | – | not readily biodegradable | 0.301
CC(=O)OC(OC(C)=O)c1ccccc1 | 220 | 46 | – | – | – | – | –
O=C(O)C1CSCN1 (stereo not drawn) | – | 196 | – | – | – | – | –
O=C(O)c1cnc[nH]1 | 294 | – | – | – | – | – | –
CC(=O)/C=C/C1C(C)=CCCC1(C)C (stereo not drawn) | – | – | -1.76 | – | – | – | –
O=C(O)COc1ccc(F)cc1 | – | 104 | – | – | – | – | –
CCC/C=C/CCC | 126 | -104 | 1.25 | – | – | – | –
C=CC(C)(O)CC (stereo not drawn) | 118 | – | – | – | – | – | –
CC[C@H]1C[N@@]2CC[C@H]1C[C@@H]2[C@@H](O)c1ccnc2ccccc12 | – | 268 | – | – | – | – | –
Fc1cc(F)c(F)c(-c2c(F)c(F)cc(F)c2F)c1F | – | 85 | – | – | – | – | –
NC(=O)c1c(Cl)cccc1Cl | – | 198 | – | 0.53 | – | not readily biodegradable | –
CCCCCCCCCCCCCC(N)=O | – | 104 | – | – | – | – | –
Nc1ccc(C=CC(=O)O)cc1 | 285 | 122 | – | – | – | – | –
CC(C)(C)C(C)(C)C | 106 | 101 | 1.32 | – | – | – | –
O=C(O)c1ccc([N+](=O)[O-])o1 | – | 186 | – | – | – | – | –

SMILES | boiling point [°C] | melting point [°C] | log10 vapour pressure (mmHg) | log10 Koc (L/kg) | log10 Henry constant (atm·m³/mol) | ready biodegradability | log10 biodegradation half-life (days)
C[C@@H](Cc1ccccc1)NCCC(c1ccccc1)c1ccccc1 | – | 36.5 | – | – | – | – | –
SCCCCS | 196 | -53.9 | – | – | – | – | –
CCC(=O)CCC(C)C | 164 | – | – | – | – | – | –
CCOC(=O)CCC(=O)OCC | 218 | -21 | -1.36 | – | – | – | –
CC(C)C(C(C)C)C(C)C | 157 | -81.7 | – | – | – | – | –
C=CC(F)(F)F | -17 | – | 3.64 | – | – | – | –
O=C1C(Br)=C(Br)C(=O)C(Br)=C1Br | – | 293 | – | – | – | – | –
CC1(C)CO1 | 52 | – | – | – | – | – | –
CCCCCCCCCCCC[N+](CCO)(CCO)Cc1ccccc1.[Cl-] | – | 108 | – | – | – | – | –
CCCC(=O)NN | – | 45.5 | – | – | – | – | –
CCOC(CO)OCC | 167 | – | – | – | – | – | –
CCCCCCCCCCCCCCCC[N+](C)(C)C.[Br-] | – | 240 | – | – | – | – | –
CC(CCl)CCCl (stereo not drawn) | 168 | – | – | – | – | – | –
CC(CO)(CO)[N+](=O)[O-] | – | 150 | – | – | – | – | –
C=C(CC)CCCC | 120 | – | 1.29 | – | – | – | –
Clc1cccc(-c2cc(Cl)c(Cl)c(Cl)c2Cl)c1Cl | – | – | – | – | -4.54 | – | –
N#CCc1ccc(Br)cc1 | – | 48 | – | – | – | – | –
Cc1nc(NS(=O)(=O)c2ccc(N)cc2)oc1C | – | 193 | – | – | – | – | –
CC(=O)Nc1ccc(C)cc1 | 307 | 152 | – | – | – | – | –
CCC(Cl)(Cl)Cl | 108 | – | 1.5 | – | – | – | –
C#CC(O)(C=CCl)CC (stereo not drawn) | 174 | – | -1 | – | – | – | –
CC(=O)c1ccc2ccccc2c1 | 302 | 56 | -3.21 | 2.93 | – | – | –
COC(=O)CCCCCCC(=O)OC | 268 | -3.1 | – | – | – | – | –
Clc1cc(Cl)c(Cl)c(-c2c(Cl)c(Cl)c(Cl)c(Cl)c2Cl)c1 | – | – | – | – | -4.85 | – | –

Same assay, conditions: fish

SMILES | log10 BCF | log10 biotransformation half-life (days)
COP(=S)(OC)Oc1ccc(C#N)cc1 | 1.56 | 0.23
CC1(C)[C@H](C(=O)O[C@@H](C#N)c2cccc(Oc3ccccc3)c2)[C@@H]1C=C(Cl)Cl (single isomer, unassigned) | – | 0.7
CCNc1ccc(C)cc1 | 0.61 | –
Brc1cc(Br)c(Oc2c(Br)c(Br)c(Br)c(Br)c2Br)c(Br)c1Br | 5.75 | –
Nc1ccc(Cl)c(Cl)c1 | 1.11 | -1.09
